The text below walks through data of ChEMBL document CHEMBL2074540, “Induction of multidrug resistance protein 3 (mrp3) in vivo is independent of constitutive androstane receptor” (Drug Metab Dispos, 2003).

The target in data set [1] is ATP-binding cassette sub-family C member 3 (Mus musculus, UniProt B2RX12). Nature of the data set: TP_TRANSPORTER: Branched DNA Assay in vivo, liver of mouse. Type of data set: functional, organism-based.
Data set [2] deals with ATP-binding cassette sub-family C member 3 (Rattus norvegicus, UniProt O88563). Put plainly: TP_TRANSPORTER: Branched DNA Assay in vivo, liver of WKY rat. It counts as functional, organism-based.
Chain of ATP-binding cassette sub-family C member 3 (Rattus norvegicus, UniProt O88563) (O88563 whole entry): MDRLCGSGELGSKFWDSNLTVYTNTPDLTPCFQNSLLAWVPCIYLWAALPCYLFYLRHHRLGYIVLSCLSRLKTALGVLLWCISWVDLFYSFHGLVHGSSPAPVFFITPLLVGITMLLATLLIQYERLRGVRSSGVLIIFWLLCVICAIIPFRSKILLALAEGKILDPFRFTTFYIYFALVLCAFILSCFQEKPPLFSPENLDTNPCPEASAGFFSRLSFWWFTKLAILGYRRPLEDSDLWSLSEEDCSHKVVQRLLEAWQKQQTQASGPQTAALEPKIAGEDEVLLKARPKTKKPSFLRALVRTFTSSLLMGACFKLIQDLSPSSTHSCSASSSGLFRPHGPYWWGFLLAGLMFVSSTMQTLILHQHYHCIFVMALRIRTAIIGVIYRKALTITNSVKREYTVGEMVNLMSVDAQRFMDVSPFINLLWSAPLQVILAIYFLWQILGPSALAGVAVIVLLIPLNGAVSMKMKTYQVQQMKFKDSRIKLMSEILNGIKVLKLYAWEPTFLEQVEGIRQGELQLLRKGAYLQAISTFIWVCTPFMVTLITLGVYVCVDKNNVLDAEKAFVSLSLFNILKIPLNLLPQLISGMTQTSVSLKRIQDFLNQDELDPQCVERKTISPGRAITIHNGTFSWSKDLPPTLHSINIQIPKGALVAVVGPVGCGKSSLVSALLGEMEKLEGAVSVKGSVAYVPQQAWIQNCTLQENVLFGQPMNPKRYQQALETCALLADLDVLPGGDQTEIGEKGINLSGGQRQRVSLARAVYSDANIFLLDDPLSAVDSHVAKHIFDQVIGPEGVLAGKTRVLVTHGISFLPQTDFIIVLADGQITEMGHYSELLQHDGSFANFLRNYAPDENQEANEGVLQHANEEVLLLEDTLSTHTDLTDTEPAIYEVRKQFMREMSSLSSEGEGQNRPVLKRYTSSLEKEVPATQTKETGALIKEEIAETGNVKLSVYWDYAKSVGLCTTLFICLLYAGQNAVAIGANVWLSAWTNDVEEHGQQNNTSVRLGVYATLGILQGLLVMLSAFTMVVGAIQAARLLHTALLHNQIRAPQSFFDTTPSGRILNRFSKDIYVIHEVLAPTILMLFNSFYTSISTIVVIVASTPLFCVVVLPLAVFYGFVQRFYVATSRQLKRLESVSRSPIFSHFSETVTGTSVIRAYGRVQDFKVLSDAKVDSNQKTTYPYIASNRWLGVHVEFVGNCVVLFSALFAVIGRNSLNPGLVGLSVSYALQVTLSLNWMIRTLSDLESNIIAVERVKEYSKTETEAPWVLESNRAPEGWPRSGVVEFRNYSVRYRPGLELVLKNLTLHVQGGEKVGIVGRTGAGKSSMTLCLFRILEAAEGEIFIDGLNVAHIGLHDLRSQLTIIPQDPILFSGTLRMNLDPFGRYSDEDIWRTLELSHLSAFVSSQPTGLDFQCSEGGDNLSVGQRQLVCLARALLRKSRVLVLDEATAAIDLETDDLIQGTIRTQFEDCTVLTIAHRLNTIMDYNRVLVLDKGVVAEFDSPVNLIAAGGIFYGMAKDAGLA

Chain of ATP-binding cassette sub-family C member 3 (Mus musculus, UniProt B2RX12) (B2RX12 whole entry): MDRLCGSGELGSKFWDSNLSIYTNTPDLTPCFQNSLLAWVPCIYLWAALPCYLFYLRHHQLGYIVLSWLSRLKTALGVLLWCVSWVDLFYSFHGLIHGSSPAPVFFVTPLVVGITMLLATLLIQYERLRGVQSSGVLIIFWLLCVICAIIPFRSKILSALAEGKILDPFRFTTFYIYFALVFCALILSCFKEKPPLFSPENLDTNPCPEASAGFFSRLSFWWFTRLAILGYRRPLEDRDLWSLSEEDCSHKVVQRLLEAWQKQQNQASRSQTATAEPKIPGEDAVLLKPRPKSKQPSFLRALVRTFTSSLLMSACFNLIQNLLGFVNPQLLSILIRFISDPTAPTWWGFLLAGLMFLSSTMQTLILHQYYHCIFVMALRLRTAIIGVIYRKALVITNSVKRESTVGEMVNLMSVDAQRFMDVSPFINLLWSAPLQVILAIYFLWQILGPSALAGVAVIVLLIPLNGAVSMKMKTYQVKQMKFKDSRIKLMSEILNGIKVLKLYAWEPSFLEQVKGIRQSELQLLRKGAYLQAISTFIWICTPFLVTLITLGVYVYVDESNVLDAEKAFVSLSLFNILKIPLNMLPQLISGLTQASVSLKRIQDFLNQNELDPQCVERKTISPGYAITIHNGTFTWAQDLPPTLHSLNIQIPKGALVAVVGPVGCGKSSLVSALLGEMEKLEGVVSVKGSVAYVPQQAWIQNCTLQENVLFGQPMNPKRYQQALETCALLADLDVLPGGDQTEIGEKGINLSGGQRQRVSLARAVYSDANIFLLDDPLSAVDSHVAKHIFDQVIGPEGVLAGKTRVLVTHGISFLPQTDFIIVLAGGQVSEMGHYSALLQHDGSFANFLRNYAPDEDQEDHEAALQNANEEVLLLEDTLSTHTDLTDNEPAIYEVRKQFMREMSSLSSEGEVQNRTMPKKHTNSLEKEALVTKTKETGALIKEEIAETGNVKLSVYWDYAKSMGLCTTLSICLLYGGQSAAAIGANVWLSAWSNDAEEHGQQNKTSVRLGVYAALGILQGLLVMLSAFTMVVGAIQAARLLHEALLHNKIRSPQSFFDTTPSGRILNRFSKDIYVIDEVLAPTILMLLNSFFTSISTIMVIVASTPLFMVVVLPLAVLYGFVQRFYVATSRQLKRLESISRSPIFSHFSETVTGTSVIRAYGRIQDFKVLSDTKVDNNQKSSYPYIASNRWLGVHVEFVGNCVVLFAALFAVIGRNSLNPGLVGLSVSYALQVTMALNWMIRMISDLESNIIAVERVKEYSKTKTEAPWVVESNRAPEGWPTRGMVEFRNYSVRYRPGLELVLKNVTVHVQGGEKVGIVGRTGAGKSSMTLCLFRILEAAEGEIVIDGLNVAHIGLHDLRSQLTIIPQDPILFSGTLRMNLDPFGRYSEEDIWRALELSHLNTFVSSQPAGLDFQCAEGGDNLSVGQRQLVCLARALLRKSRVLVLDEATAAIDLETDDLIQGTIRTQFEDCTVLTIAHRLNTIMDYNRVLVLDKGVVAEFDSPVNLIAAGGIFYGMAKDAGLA

In the case of `CCC1(c2ccccc2)C(=O)NC(=O)NC1=O` [PHENOBARBITAL], the Activity result in data set [1] and in data set [2] was “inducer []” each time.
Take `c1ccc([C@H]2O[C@@H]2c2ccccc2)cc1` (relative stereo): the Activity result in data set [1] and in data set [2] was “inducer []” throughout.
As for `Cc1c(-c2cnccn2)ssc1=S` [OLTIPRAZ], the Activity result in data set [1] and in data set [2] was “inducer []” in each case.
Consider `C=CCSCC=C` [DIALLYL SULFIDE], for which the Activity result in data set [1] and in data set [2] was “inducer []” each time.
